In assay [1] the test system is YAP nuclear translocation in HaCaT cells. The assay is described as follows: YAP Translocation Assay (HaCaT Cells). The class given is cell-based, human. The note with it: 24 hours. Put shortly: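 HaCaT cells (20,000/well) in DMEM + 10% FBS were plated overnight at 37° C, then exposed to compound for 24 h at 37° C. Cells were fixed with PFA, permeabilized with 0.1% Triton/1.5% BSA and imaged by high-content imaging.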

Assay [2] relates to Phospho-YAP (SER127) in HaCaT cells. As to the kind of experiment: pYAP HTRF Assay (HaCaT Cells). The class given is cell-based, human. To be noted: 2 hours. Here is the method:
The pYAP HTRF assay was performed using the Phospho-YAP (SER127) 10000 test kit (CisBio, catalogue number 64YAPPEH) according to manufacturer's instructions. Briefly, HaCaT cells were suspended at 1.1×10^6 cells/mL in DMEM (no phenol red)+10% FBS with penicillin-streptomycin-glutamine. 5 μL of cells were dispensed into 1536 well white solid bottom, tissue culture treated plates (5500 cells/well), and incubated for 48 hours at 37° C. 50 nL test compound was transferred into the assay plates containing HaCaT cells using Pintool (GNF) and incubated for 2 hours. […] The plates were incubated overnight (20 hrs) at room temperature covered with metal lids. Plates were read on Pherastar (BMG Labtech) for HTRF (665 nm/620 nm).
A general note: Time-resolved FRET reads energy transfer from a long-lived donor to a nearby acceptor.

For the next assay, the target named is LATS1 (Homo sapiens (Human), UniProt O95835). The assay is described as follows: LATS1 biochemical assay (Table 1A, Compound Examples 1-290; method in the earlier part).

pEC50, pIC50: −log10 of the molar value. Where only a bound is given, the exact number is not on record here.

LATS1, sequence (O95835 whole entry, looked up): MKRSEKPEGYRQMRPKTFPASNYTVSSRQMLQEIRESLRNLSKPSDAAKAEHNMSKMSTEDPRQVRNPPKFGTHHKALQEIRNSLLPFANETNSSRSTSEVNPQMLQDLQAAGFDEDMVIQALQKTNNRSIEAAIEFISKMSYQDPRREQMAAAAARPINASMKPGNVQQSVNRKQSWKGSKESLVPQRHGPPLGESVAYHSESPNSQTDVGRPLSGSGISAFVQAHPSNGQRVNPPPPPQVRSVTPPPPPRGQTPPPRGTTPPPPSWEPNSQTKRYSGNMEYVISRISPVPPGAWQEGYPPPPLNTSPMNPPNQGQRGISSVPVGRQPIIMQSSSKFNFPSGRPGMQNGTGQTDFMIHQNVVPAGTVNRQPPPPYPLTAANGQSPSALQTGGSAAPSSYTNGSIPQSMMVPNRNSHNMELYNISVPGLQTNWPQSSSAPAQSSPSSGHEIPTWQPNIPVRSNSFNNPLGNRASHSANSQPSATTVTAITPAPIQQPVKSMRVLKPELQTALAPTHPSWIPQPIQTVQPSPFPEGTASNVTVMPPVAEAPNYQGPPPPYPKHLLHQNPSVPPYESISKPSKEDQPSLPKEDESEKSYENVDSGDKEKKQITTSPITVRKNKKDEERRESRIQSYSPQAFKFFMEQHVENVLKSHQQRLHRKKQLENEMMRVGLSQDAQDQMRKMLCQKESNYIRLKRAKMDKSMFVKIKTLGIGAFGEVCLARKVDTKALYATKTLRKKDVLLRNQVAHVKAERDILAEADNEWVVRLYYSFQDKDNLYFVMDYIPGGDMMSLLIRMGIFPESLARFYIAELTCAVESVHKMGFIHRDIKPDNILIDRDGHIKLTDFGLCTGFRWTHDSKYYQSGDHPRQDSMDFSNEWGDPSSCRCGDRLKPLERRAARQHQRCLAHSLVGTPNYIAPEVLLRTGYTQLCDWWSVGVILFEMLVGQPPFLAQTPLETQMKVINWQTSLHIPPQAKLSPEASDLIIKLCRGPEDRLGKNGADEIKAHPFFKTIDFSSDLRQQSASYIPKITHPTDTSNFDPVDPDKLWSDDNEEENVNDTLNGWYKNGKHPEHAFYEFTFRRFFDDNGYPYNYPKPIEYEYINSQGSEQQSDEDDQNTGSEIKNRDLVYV
LATS1, sequence (Q7L9L4 whole entry partner, looked up): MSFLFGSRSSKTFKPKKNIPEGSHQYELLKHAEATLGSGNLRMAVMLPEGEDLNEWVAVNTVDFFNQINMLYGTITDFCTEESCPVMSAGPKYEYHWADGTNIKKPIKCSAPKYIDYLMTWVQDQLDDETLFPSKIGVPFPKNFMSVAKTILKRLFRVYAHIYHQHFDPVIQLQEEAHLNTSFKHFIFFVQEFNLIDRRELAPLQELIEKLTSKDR

In turn, `CC(C)(CC#N)Nc1nc(-c2ccncc2)nc2cnccc12` [Example 104, 3-methyl-3-{[2-(pyridin-4-yl)pyrido[3,4-d]pyrimidin-4-yl]amino}butanenitrile] had a pEC50 in assay [1] (Homo sapiens) of 5.28. Further, the results for the negative-log IC50 (pIC50) (in assay [2] (Homo sapiens); against LATS1) were 5.59 and 8.30, respectively.

`C[C@@H]1CCC[C@@H]1Nc1nc(-c2ccncc2)nc2cnccc12` (single isomer, unassigned) [Example 17b] showed a negative-log EC50 (pEC50) in assay [1] (Homo sapiens) of 5.91. In addition, the negative-log IC50 (pIC50) in assay [2] (Homo sapiens) is 6.12; against LATS1, 9.05.

Regarding `c1cc(-c2nc(NC3CC3)c3ccncc3n2)ccn1` [Example 21, N-cyclopropyl-2-(pyridin-4-yl)pyrido[3,4-d]pyrimidin-4-amine], the pEC50 in assay [1] (Homo sapiens) is 5.06. Moreover, the values for the negative logarithm of the IC50 (pIC50) (in assay [2] (Homo sapiens); against LATS1) were 4.72 and 8.15, respectively.

Compound `CC(C)(COC(C)(C)C)Nc1nc(-c2ccncc2)nc2cnccc12` [Example 75, N-[1-(tert-butoxy)-2-methylpropan-2-yl]-2-(pyridin-4-yl)pyrido[3,4-d]pyrimidin-4-amine] showed a pEC50 in assay [1] (Homo sapiens) of 5.16. Further, the negative-log IC50 (pIC50) in assay [2] (Homo sapiens) is 5.42; against LATS1, 8.10.

In assay [1] (Homo sapiens), `FC(F)(F)C1(Nc2nc(-c3cn[nH]c3)nc3cnccc23)CC1` [Example 188, 2-(1H-pyrazol-4-yl)-N-[1-(trifluoromethyl)cyclopropyl]pyrido[3,4-d]pyrimidin-4-amine] gave a pEC50 of 4.92. The figures for the negative logarithm of the IC50 (pIC50) (in assay [2] (Homo sapiens); at LATS1) were < 4.00 and 7.77, respectively.

As for `CCCNc1nc(-c2c[nH]c3ncncc23)nc2cnccc12` [Example 161, 4 N-propyl-2-{7H-pyrrolo[2,3-d]pyrimidin-5-yl}pyrido[3,4-d]pyrimidin-4-amine], in assay [1] (Homo sapiens), the pEC50 was < 4.70. Besides, the negative-log IC50 (pIC50) is < 4.00 in assay [2] (Homo sapiens) and 7.60 against LATS1.

As for `C[C@@H](N(C)c1nc(-c2ccncc2F)nc2cnccc12)C(F)(F)F` [Example 137, 2-(3-fluoropyridin-4-yl)-N-methyl-N-[(2R)-1,1,1-trifluoropropan-2-yl]pyrido[3,4-d]pyrimidin-4-amine], in assay [1] (Homo sapiens), the negative-log EC50 (pEC50) was < 4.75. Besides, the figures for the negative logarithm of the IC50 (pIC50) (in assay [2] (Homo sapiens); on LATS1) were 4.45 and 7.66, respectively.

On to `CC(C)(CN1CCOCC1)Nc1nc(-c2ccncc2)nc2cnccc12` [Example 74], for which the negative logarithm of the EC50 (pEC50) in assay [1] (Homo sapiens) is 4.90. Further, the negative-log IC50 (pIC50) in assay [2] (Homo sapiens) was 5.47; against LATS1, 8.22.

As for `NCCCCNc1nc(-c2ccncc2)nc2cnccc12` [Example 106, N-(4-aminobutyl)-2-(pyridin-4-yl)pyrido[3,4-d]pyrimidin-4-amine], in assay [1] (Homo sapiens), the pEC50 is < 4.70. The negative logarithm of the IC50 (pIC50) in assay [2] (Homo sapiens) was 4.85; against LATS1 it was 8.52.

`CCOC(=O)C1(Nc2nc(-c3ccncc3)nc3cnccc23)CCC1` [Example 55, ethyl 1-{[2-(pyridin-4-yl)pyrido[3,4-d]pyrimidin-4-yl]amino}cyclobutane-1-carboxylate]: the pEC50 in assay [1] (Homo sapiens) is < 4.70. Besides, the pIC50 in assay [2] (Homo sapiens) is < 5.00; against LATS1 it was 6.34.

On to `CC1CCCC1Nc1nc(-c2ccncc2)nc2cnccc12` (single isomer, unassigned) [Example 17d], for which the pEC50 in assay [1] was 5.76. Moreover, the pIC50 in assay [2] is 6.40; against LATS1, 9.00.

For the compound `CC(C)(Nc1nc(-c2ccncc2)nc2cnccc12)C1CC1` [Example 1, N-(2-cyclopropylpropan-2-yl)-2-(pyridin-4-yl)pyrido[3,4-d]pyrimidin-4-amine], the pEC50 in assay [1] (Homo sapiens) is 6.49. Besides, the pIC50 is 7.72 in assay [2] (Homo sapiens) and 9.00 at LATS1.

The compound `Cc1[nH]ncc1-c1nc(N[C@H](C)c2ccccc2)c2ccncc2n1` [Example 168, 2-(5-methyl-1H-pyrazol-4-yl)-N-[(1R)-1-phenylethyl]pyrido[3,4-d]pyrimidin-4-amine] gave a pEC50 in assay [1] (Homo sapiens) of 4.94. The negative-log IC50 (pIC50) in assay [2] (Homo sapiens) was 4.58; on LATS1 it was 7.55.

`CCCCN(C)c1nc(-c2ccncc2)nc2cnccc12` [Example 9, N-butyl-N-methyl-2-(pyridin-4-yl)pyrido[3,4-d]pyrimidin-4-amine] gave a negative logarithm of the EC50 (pEC50) in assay [1] (Homo sapiens) of 5.62. Moreover, the negative logarithm of the IC50 (pIC50) in assay [2] (Homo sapiens) was 5.68; at LATS1 it was 8.52.

For the compound `CCCCNc1nc(-c2ccncc2)nc2cnccc12` [Example 19, N-butyl-2-(pyridin-4-yl)pyrido[3,4-d]pyrimidin-4-amine], the pEC50 in assay [1] (Homo sapiens) is 4.75. Moreover, the values for the negative logarithm of the IC50 (pIC50) (in assay [2] (Homo sapiens); against LATS1) were 4.61 and 8.22, respectively.

Consider `CC1(Nc2nc(-c3ccncc3)nc3cnccc23)COC1` [Example 16, N-(3-methyloxetan-3-yl)-2-(pyridin-4-yl)pyrido[3,4-d]pyrimidin-4-amine], for which the pEC50 in assay [1] (Homo sapiens) is 4.80. Also, the pIC50 was 5.01 in assay [2] (Homo sapiens) and 8.30 on LATS1.

As to `CC(C)(Cc1ccc(F)cc1)Nc1nc(-c2ccncc2)nc2cnccc12` [Example 80, N-[1-(4-fluorophenyl)-2-methylpropan-2-yl]-2-(pyridin-4-yl)pyrido[3,4-d]pyrimidin-4-amine], the pEC50 in assay [1] (Homo sapiens) was 4.89. For the same compound, the pIC50 in assay [2] (Homo sapiens) was 4.67; against LATS1, 7.96.

Regarding `OC1(CNc2nc(-c3ccncc3)nc3cnccc23)CCCC1` [Example 87, 1-({[2-(pyridin-4-yl)pyrido[3,4-d]pyrimidin-4-yl]amino}methyl)cyclopentan-1-ol], in assay [1] (Homo sapiens), the pEC50 is < 4.70. For the same compound, the values for the negative-log IC50 (pIC50) (in assay [2] (Homo sapiens); on LATS1) were 4.29 and 7.52, respectively.

For `Fc1ccccc1Nc1nc(-c2ccncc2)nc2cnccc12` [Example 82, N-(2-fluorophenyl)-2-(pyridin-4-yl)pyrido[3,4-d]pyrimidin-4-amine], the negative logarithm of the EC50 (pEC50) in assay [1] (Homo sapiens) was < 4.70. Moreover, the pIC50 in assay [2] (Homo sapiens) was < 4.00; on LATS1, 7.89.

For `CC1(Nc2nc(-c3cncs3)nc3cnccc23)CC1` [Example 149, N-(1-methylcyclopropyl)-2-(1,3-thiazol-5-yl)pyrido[3,4-d]pyrimidin-4-amine], in assay [1] (Homo sapiens), the negative-log EC50 (pEC50) is < 4.70. In addition, the negative-log IC50 (pIC50) is < 5.00 in assay [2] (Homo sapiens) and 6.77 on LATS1.

For `CCC(CO)Nc1nc(-c2ccncc2)nc2cnccc12` (stereo not drawn) [Example 78, 2-{[2-(pyridin-4-yl)pyrido[3,4-d]pyrimidin-4-yl]amino}butan-1-ol], the pEC50 in assay [1] (Homo sapiens) was 4.84. Moreover, the pIC50 in assay [2] (Homo sapiens) was 4.92; on LATS1, 7.96.

As for `CC1(Nc2nc(-c3ccc4[nH]ncc4c3)nc3cnccc23)CC1` [Example 143, 2-(1H-indazol-5-yl)-N-(1-methylcyclopropyl)pyrido[3,4-d]pyrimidin-4-amine], in assay [1] (Homo sapiens), the negative logarithm of the EC50 (pEC50) is < 4.70. Also, the pIC50 in assay [2] (Homo sapiens) was < 5.00; on LATS1, 8.15.

`CN(C)c1nc(-c2ccncc2)nc2cnccc12` [Example 88, N,N-dimethyl-2-(pyridin-4-yl)pyrido[3,4-d]pyrimidin-4-amine] showed a pEC50 in assay [1] (Homo sapiens) of 4.53. Also, the pIC50 in assay [2] (Homo sapiens) is 4.16; against LATS1, 7.43.

For the compound `CC1(Nc2nc(-c3cnco3)nc3cnccc23)CC1` [Example 175, N-(1-methylcyclopropyl)-2-(1,3-oxazol-5-yl)pyrido[3,4-d]pyrimidin-4-amine], the pEC50 in assay [1] (Homo sapiens) was < 4.70. Further, the results for the negative logarithm of the IC50 (pIC50) (in assay [2] (Homo sapiens); against LATS1) were < 5.00 and 6.49, respectively.

Consider `CC(C)CNc1nc(-c2ccncc2)nc2cnccc12` [Example 103, N-(2-methylpropyl)-2-(pyridin-4-yl)pyrido[3,4-d]pyrimidin-4-amine], for which, in assay [1] (Homo sapiens), the pEC50 is 5.64. The negative-log IC50 (pIC50) was 5.58 in assay [2] (Homo sapiens) and 8.70 at LATS1.

Broadly, the pEC50 is the negative decadic logarithm of the EC50, by convention in mol/L. One may read the pIC50 as −log10 of the IC50, conventionally taken in molar units.

For the origin of these results see US11458138B2 (Novartis AG, priority 2017, dated 2022).
